Data reported in paper PMC12435834, “The GLYT1 inhibitor bitopertin mitigates erythroid PPIX production and liver disease in erythroid protoporphyria” (The Journal of Clinical Investigation, 2025).

Legend:
[1] = target: T1, GLYT1 (Mus musculus, UniProt P28571); assay: ex vivo 3H-glycine uptake by peripheral blood cells of orally dosed mice vs free plasma concentration
T1 construct: gene Slc6a9
T1 sequence (P28571 1-692): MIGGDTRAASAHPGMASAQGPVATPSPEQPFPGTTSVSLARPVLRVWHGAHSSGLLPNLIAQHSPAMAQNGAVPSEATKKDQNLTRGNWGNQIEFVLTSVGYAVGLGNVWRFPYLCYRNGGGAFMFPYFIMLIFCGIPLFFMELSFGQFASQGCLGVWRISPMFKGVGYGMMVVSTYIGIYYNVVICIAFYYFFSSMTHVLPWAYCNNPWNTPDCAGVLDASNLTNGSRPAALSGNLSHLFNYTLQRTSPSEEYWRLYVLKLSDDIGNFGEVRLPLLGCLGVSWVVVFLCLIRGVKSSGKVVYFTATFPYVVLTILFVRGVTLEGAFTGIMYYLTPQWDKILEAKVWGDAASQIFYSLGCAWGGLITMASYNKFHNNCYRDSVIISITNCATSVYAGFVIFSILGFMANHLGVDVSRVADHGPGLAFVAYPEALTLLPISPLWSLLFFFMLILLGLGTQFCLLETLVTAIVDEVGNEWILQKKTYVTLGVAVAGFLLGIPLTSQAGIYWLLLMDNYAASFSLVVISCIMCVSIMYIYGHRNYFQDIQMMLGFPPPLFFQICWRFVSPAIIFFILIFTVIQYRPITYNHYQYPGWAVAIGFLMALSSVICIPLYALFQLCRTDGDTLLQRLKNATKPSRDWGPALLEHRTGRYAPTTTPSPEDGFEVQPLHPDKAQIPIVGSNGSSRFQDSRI

[2] = target: T2, GLYT1 (Rattus norvegicus, UniProt P28572); assay: ex vivo 3H-glycine uptake by peripheral blood cells of orally dosed rats vs free plasma concentration
T2 construct: gene Slc6a9
T2 sequence (P28572 1-638): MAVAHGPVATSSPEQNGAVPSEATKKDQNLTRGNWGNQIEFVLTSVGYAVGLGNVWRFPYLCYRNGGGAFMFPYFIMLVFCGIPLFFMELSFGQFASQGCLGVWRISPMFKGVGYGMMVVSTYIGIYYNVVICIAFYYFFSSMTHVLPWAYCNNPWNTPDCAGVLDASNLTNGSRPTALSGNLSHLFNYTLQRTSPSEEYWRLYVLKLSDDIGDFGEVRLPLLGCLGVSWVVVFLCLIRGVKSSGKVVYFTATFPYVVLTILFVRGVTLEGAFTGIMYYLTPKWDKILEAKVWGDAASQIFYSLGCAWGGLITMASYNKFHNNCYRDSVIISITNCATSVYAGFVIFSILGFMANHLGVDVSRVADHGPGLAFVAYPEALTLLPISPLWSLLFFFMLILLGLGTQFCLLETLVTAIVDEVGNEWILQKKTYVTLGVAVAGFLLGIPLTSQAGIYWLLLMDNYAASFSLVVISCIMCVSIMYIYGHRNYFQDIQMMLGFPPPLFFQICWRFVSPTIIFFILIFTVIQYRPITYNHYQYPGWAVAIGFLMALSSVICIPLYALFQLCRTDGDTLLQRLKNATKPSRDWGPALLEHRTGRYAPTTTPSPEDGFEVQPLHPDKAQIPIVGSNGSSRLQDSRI

C[C@H](Oc1ccc(S(C)(=O)=O)cc1C(=O)N1CCN(c2ncc(C(F)(F)F)cc2F)CC1)C(F)(F)F [bitopertin, [4-(3-fluoro-5-trifluoromethylpyridin-2-yl)piperazin-1-yl][5-methanesulfonyl-2-((S)-2,2,2-trifluoro-1-methylethoxy)phenyl]methanone]
EC50 [1]: 1.2 nM
EC50 [2]: 2 nM
